According to patent publication US8236793B2, “Diazabicyclic aryl derivatives as cholinergic receptor modulators” (Neurosearch A/S, priority 2004, dated 2012):
Where a name gives a salt, the structure may show the parent alone.

molecular target: T1, α7-subtype of nicotinic receptors (Rattus norvegicus, UniProt Q05941); assay: In vitro inhibition of 3H-α-bungarotoxine binding in rat brain; conditions: rat cerebral cortex homogenate; 3H-α-bungarotoxine 2 nM; 2 hours at 37° C.
T1 construct: Cerebral cortices from male Wistar rats (150-250 g) are homogenised; from tissue; host or cells: rat cerebral cortex membrane homogenate (male Wistar rats)
T1 sequence (Q05941 23-502): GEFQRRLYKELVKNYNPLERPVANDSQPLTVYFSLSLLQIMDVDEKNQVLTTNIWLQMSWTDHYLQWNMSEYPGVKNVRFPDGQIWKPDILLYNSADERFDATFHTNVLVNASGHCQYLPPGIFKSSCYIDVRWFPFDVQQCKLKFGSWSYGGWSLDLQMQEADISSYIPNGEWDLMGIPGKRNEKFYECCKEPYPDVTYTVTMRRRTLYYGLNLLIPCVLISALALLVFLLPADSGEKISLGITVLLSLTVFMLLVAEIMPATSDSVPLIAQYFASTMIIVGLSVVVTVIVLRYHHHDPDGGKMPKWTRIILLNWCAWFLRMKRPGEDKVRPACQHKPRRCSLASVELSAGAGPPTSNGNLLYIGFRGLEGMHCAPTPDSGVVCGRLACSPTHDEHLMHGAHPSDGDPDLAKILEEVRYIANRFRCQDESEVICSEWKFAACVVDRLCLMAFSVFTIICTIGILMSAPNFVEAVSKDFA

Row | SMILES | IC50
1 | C(#Cc1ccc(N2CCN3CCC2CC3)nn1)c1ccccc1 [Compound B1, 4-(6-Phenylethynyl-pyridazin-3-yl)-1,4-diaza-bicyclo[3.2.2]nonane] | 60 nM
2 | COc1ccc(C#Cc2ccc(N3CCN4CCC3CC4)nn2)cc1 [Compound B4, 4-[6-(4-Methoxy-phenylethynyl)-pyridazin-3-yl]-1,4-diaza-bicyclo[3.2.2]nonane] | 180 nM
3 | C(#Cc1ccc(N2CCN3CCC2CC3)nn1)c1cccnc1 [Compound B5, 4-[6-(3-Pyridinlethynyl)-pyridazin-3-yl]-1,4-diaza-bicyclo[3.2.2]nonane] | 150 nM
4 | c1ccc(Sc2ccc(N3CCN4CCC3CC4)nn2)cc1 [Compound C1, 4-(6-Phenylsulfanyl-pyridazin-3-yl)-1,4-diaza-bicyclo[3.2.2]nonane] | 600 nM

tested on: not given; assay: not given; conditions: not given

Row | melting point | SMILES
5 | 181.7 to 183.4 °C | Nc1ccc(C#Cc2ccc(N3CCN4CCC3CC4)nn2)cc1
6 | 184 to 187 °C | CC(=O)Nc1cccc(C(=O)Nc2ccc(N3CCN4CCC3CC4)cc2)c1
7 | > 240 °C | CC(=O)Nc1ccc(C(=O)Nc2ccc(N3CCN4CCC3CC4)cc2)cc1
8 | 255 °C (dec.) | CC(=O)Nc1ccc(C(=O)Nc2ccc(N3CCN4CCC3CC4)nc2)cc1
9 | 60 °C | CC(=O)Nc1cccc(C(=O)Nc2ccc(N3CCN4CCC3CC4)nc2)c1
10 | 173.5 to 175 °C | Fc1cccc(C#Cc2ccc(N3CCN4CCC3CC4)nn2)c1 (as salt: fumaric acid salt)

Row | SMILES | melting point
11 | COc1ccc(C#Cc2ccc(N3CCN4CCC3CC4)nn2)cc1 (as salt: fumaric acid salt) [Compound B4, 4-[6-(4-Methoxy-phenylethynyl)-pyridazin-3-yl]-1,4-diaza-bicyclo[3.2.2]nonane] | 208 to 209 °C
12 | C(#Cc1ccc(N2CCN3CCC2CC3)nn1)c1cccnc1 (as salt: fumaric acid salt) [Compound B5, 4-[6-(3-Pyridinlethynyl)-pyridazin-3-yl]-1,4-diaza-bicyclo[3.2.2]nonane] | 177.8 to 181.2 °C
